This is an account of results in patent US20070225202A1, “Methods for Identifying Modulators of Active Kit Tyrosine Kinase Receptor” (priority 2003, published 2007).

Experiment [1] relates to HMC1.1 cells (naturally expressing KITV560G). As to the kind of experiment: cells. Particulars: Homo sapiens, 72 h, read-out: inhibition of proliferation.
Protocol: The cell-viability assay was performed using an ATPlite™ assay (PerkinElmer Life Sciences, Boston, Mass.), according to the manufacturer's protocol. […] Cells were incubated for 72 hours in the presence or absence of KIT inhibitors and cell viability measured
Experiment [2] has as its system KIT816 mutants. Particulars: previous studies; cited from earlier work.
For experiment [3], the system named is constitutively active KIT mutants exhibiting mutations in the juxtamembrane domain. Particulars: cited from earlier work.
The subject of experiment [4] is KITD814V and KITD814Y. Particulars: KITD814V and KITD814Y expressed in transfected cells; cited from earlier work.

Take `Cc1ccc(NC(=O)c2ccc(CN3CCN(C)CC3)cc2)cc1Nc1nccc(-c2cccnc2)n1` [Gleevec]: the inhibition at 0.1 µM in experiment [1] was about 80%. Moreover, in experiment [2], the “effectiveness against KIT816 mutants” value is recorded as “ineffective”. The “inhibition of constitutively active KIT mutants” value in experiment [3] was “inhibit constitutively active KIT mutants”.
`Cc1ccc(-c2nn(C(C)(C)C)c3ncnc(N)c23)cc1` [PP1]: the “inhibition of activated KIT receptors” value in experiment [4] is “act as inhibitors of activated KIT receptors”.
Regarding `CC(C)(C)n1nc(-c2ccc(Cl)cc2)c2c(N)ncnc21` [PP2], in experiment [4], the “inhibition of activated KIT receptors” value is recorded as “act as inhibitors of activated KIT receptors”.
